Results published in ChEMBL document CHEMBL3885881, “DrugMatrix”.

Species on record: Rattus norvegicus
Test: DrugMatrix - Regimen: Daily Repeat
Type: toxicity, organism-based, Sprague-Dawley
Set-up: regimen Daily Repeat, gender Male, age 6-8 weeks
Conditions: in vivo, po, route oral GAVAGE, vehicle 100 % WATER; for ABSOLUTE BASOPHIL / ABSOLUTE EOSINOPHIL / ABSOLUTE LYMPHOCYTE / ABSOLUTE MONOCYTE / ABSOLUTE SEGMENTED NEUTROPHIL / BASOPHIL / EOSINOPHIL / ERYTHROCYTE COUNT / HEMATOCRIT / HEMOGLOBIN / LEUKOCYTE COUNT / LYMPHOCYTE / MEAN CORPUSCULAR HEMOGLOBIN / MEAN CORPUSCULAR HEMOGLOBIN CONCENTRATION / MEAN CORPUSCULAR VOLUME / MONOCYTE / NEUTROPHIL / NUCLEATED RED BLOOD CELLS / PLATELET COUNT: tissue Blood; for ALANINE AMINOTRANSFERASE / ALBUMIN / ALKALINE PHOSPHATASE / ASPARTATE AMINOTRANSFERASE / BLOOD UREA NITROGEN / CARBON DIOXIDE / CHLORIDE / CHOLESTEROL / CREATINE PHOSPHOKINASE / CREATININE / GLUCOSE / LACTATE DEHYDROGENASE / LIPASE / PHOSPHORUS / POTASSIUM / SODIUM / TOTAL BILIRUBIN / TOTAL PROTEIN / URIC ACID: tissue Plasma
[1] = 0 mg/kg, 72 h, dose level Control, time 3 day
[2] = 0 mg/kg, 120 h, dose level Control, time 5 day
[3] = 3525 mg/kg, 72 h, dose level High, time 3 day
[4] = 3525 mg/kg, 120 h, dose level High, time 5 day

OCCO [ETHYLENE GLYCOL]
ABSOLUTE BASOPHIL [1]: 0 CELLS/uL | ABSOLUTE EOSINOPHIL [1]: 0 CELLS/uL | ABSOLUTE LYMPHOCYTE [1]: 7802.17 CELLS/uL | ABSOLUTE MONOCYTE [1]: 13.5 CELLS/uL | ABSOLUTE SEGMENTED NEUTROPHIL [1]: 617.67 CELLS/uL | BASOPHIL [1]: 0% | EOSINOPHIL [1]: 0% | ERYTHROCYTE COUNT [1]: 5.35 x10E6/uL | HEMATOCRIT [1]: 33.02% | HEMOGLOBIN [1]: 12.88 G/DL | LEUKOCYTE COUNT [1]: 8.43 x10E3/uL | LYMPHOCYTE [1]: 92.67% | MEAN CORPUSCULAR HEMOGLOBIN [1]: 24.12 pg | MEAN CORPUSCULAR HEMOGLOBIN CONCENTRATION [1]: 39.03 G/DL | MEAN CORPUSCULAR VOLUME [1]: 61.8 fL | MONOCYTE [1]: 0.17% | NEUTROPHIL [1]: 7.17% | NUCLEATED RED BLOOD CELLS [1]: 0 /100WBC | PLATELET COUNT [1]: 1124.83 x10E3/uL | ALANINE AMINOTRANSFERASE [1]: 54.17 u/L | ALBUMIN [1]: 4.07 G/DL | ALKALINE PHOSPHATASE [1]: 383.83 u/L | ASPARTATE AMINOTRANSFERASE [1]: 82.17 u/L | BLOOD UREA NITROGEN [1]: 13.67 mg/dL | CARBON DIOXIDE [1]: 31 mmol/L | CHLORIDE [1]: 100.83 MEQ/L | CHOLESTEROL [1]: 65.17 mg/dL | CREATINE PHOSPHOKINASE [1]: 228.33 u/L | CREATININE [1]: 0.12 mg/dL | GLUCOSE [1]: 148 mg/dL | LACTATE DEHYDROGENASE [1]: 97.83 u/L | LIPASE [1]: 9.17 u/L | PHOSPHORUS [1]: 9.75 mg/dL | POTASSIUM [1]: 5.85 MEQ/L | SODIUM [1]: 147.02 MEQ/L | TOTAL BILIRUBIN [1]: 0.18 mg/dL | TOTAL PROTEIN [1]: 6.1 G/DL | URIC ACID [1]: 0.5 mg/dL | ABSOLUTE BASOPHIL [2]: 0 CELLS/uL | ABSOLUTE EOSINOPHIL [2]: 0 CELLS/uL | ABSOLUTE LYMPHOCYTE [2]: 10538 CELLS/uL | ABSOLUTE MONOCYTE [2]: 15.83 CELLS/uL | ABSOLUTE SEGMENTED NEUTROPHIL [2]: 762.83 CELLS/uL | BASOPHIL [2]: 0% | EOSINOPHIL [2]: 0% | ERYTHROCYTE COUNT [2]: 5.49 x10E6/uL | HEMATOCRIT [2]: 34.63% | HEMOGLOBIN [2]: 13.72 G/DL | LEUKOCYTE COUNT [2]: 11.32 x10E3/uL | LYMPHOCYTE [2]: 92.67% | MEAN CORPUSCULAR HEMOGLOBIN [2]: 24.97 pg | MEAN CORPUSCULAR HEMOGLOBIN CONCENTRATION [2]: 39.57 G/DL | MEAN CORPUSCULAR VOLUME [2]: 63.05 fL | MONOCYTE [2]: 0.17% | NEUTROPHIL [2]: 7.17% | NUCLEATED RED BLOOD CELLS [2]: 0.17 /100WBC | PLATELET COUNT [2]: 802 x10E3/uL | ALANINE AMINOTRANSFERASE [2]: 50.5 u/L | ALBUMIN [2]: 4.07 G/DL | ALKALINE PHOSPHATASE [2]: 336.83 u/L | ASPARTATE AMINOTRANSFERASE [2]: 81 u/L | BLOOD UREA NITROGEN [2]: 14.17 mg/dL | CARBON DIOXIDE [2]: 32 mmol/L | CHLORIDE [2]: 98.33 MEQ/L | CHOLESTEROL [2]: 69.17 mg/dL | CREATINE PHOSPHOKINASE [2]: 253.33 u/L | CREATININE [2]: 0.13 mg/dL | GLUCOSE [2]: 153.67 mg/dL | LACTATE DEHYDROGENASE [2]: 157 u/L | LIPASE [2]: 9 u/L | PHOSPHORUS [2]: 10.78 mg/dL | POTASSIUM [2]: 6.11 MEQ/L | SODIUM [2]: 144.57 MEQ/L | TOTAL BILIRUBIN [2]: 0.15 mg/dL | TOTAL PROTEIN [2]: 6.05 G/DL | URIC ACID [2]: 0.73 mg/dL | ABSOLUTE BASOPHIL [3]: 0 CELLS/uL | ABSOLUTE EOSINOPHIL [3]: 0 CELLS/uL | ABSOLUTE LYMPHOCYTE [3]: 6464 CELLS/uL | ABSOLUTE MONOCYTE [3]: 70.67 CELLS/uL | ABSOLUTE SEGMENTED NEUTROPHIL [3]: 598.67 CELLS/uL | BASOPHIL [3]: 0% | EOSINOPHIL [3]: 0% | ERYTHROCYTE COUNT [3]: 5.57 x10E6/uL | HEMATOCRIT [3]: 33.43% | HEMOGLOBIN [3]: 13.07 G/DL | LEUKOCYTE COUNT [3]: 7.13 x10E3/uL | LYMPHOCYTE [3]: 90.67% | MEAN CORPUSCULAR HEMOGLOBIN [3]: 23.5 pg | MEAN CORPUSCULAR HEMOGLOBIN CONCENTRATION [3]: 39.1 G/DL | MEAN CORPUSCULAR VOLUME [3]: 60.17 fL | MONOCYTE [3]: 1% | NEUTROPHIL [3]: 8.33% | NUCLEATED RED BLOOD CELLS [3]: 0 /100WBC | PLATELET COUNT [3]: 918.33 x10E3/uL | ALANINE AMINOTRANSFERASE [3]: 68 u/L | ALBUMIN [3]: 3.93 G/DL | ALKALINE PHOSPHATASE [3]: 332 u/L | ASPARTATE AMINOTRANSFERASE [3]: 88.33 u/L | BLOOD UREA NITROGEN [3]: 12.33 mg/dL | CARBON DIOXIDE [3]: 36 mmol/L | CHLORIDE [3]: 97.67 MEQ/L | CHOLESTEROL [3]: 61 mg/dL | CREATINE PHOSPHOKINASE [3]: 279 u/L | CREATININE [3]: 0.1 mg/dL | GLUCOSE [3]: 140 mg/dL | LACTATE DEHYDROGENASE [3]: 110.33 u/L | LIPASE [3]: 9 u/L | PHOSPHORUS [3]: 9 mg/dL | POTASSIUM [3]: 5.82 MEQ/L | SODIUM [3]: 143.77 MEQ/L | TOTAL BILIRUBIN [3]: 0.17 mg/dL | TOTAL PROTEIN [3]: 5.7 G/DL | URIC ACID [3]: 0.77 mg/dL | ABSOLUTE BASOPHIL [4]: 0 CELLS/uL | ABSOLUTE EOSINOPHIL [4]: 0 CELLS/uL | ABSOLUTE LYMPHOCYTE [4]: 7667.33 CELLS/uL | ABSOLUTE MONOCYTE [4]: 0 CELLS/uL | ABSOLUTE SEGMENTED NEUTROPHIL [4]: 399.33 CELLS/uL | BASOPHIL [4]: 0% | EOSINOPHIL [4]: 0% | ERYTHROCYTE COUNT [4]: 5.77 x10E6/uL | HEMATOCRIT [4]: 35.47% | HEMOGLOBIN [4]: 14.17 G/DL | LEUKOCYTE COUNT [4]: 8.07 x10E3/uL | LYMPHOCYTE [4]: 95.33% | MEAN CORPUSCULAR HEMOGLOBIN [4]: 24.53 pg | MEAN CORPUSCULAR HEMOGLOBIN CONCENTRATION [4]: 39.97 G/DL | MEAN CORPUSCULAR VOLUME [4]: 61.43 fL | MONOCYTE [4]: 0% | NEUTROPHIL [4]: 4.67% | NUCLEATED RED BLOOD CELLS [4]: 0 /100WBC | PLATELET COUNT [4]: 1091.67 x10E3/uL | ALANINE AMINOTRANSFERASE [4]: 54 u/L | ALBUMIN [4]: 4.1 G/DL | ALKALINE PHOSPHATASE [4]: 328.33 u/L | ASPARTATE AMINOTRANSFERASE [4]: 80 u/L | BLOOD UREA NITROGEN [4]: 14 mg/dL | CARBON DIOXIDE [4]: 35.67 mmol/L | CHLORIDE [4]: 96.33 MEQ/L | CHOLESTEROL [4]: 66 mg/dL | CREATINE PHOSPHOKINASE [4]: 238.33 u/L | CREATININE [4]: 0.14 mg/dL | GLUCOSE [4]: 145 mg/dL | LACTATE DEHYDROGENASE [4]: 115.67 u/L | LIPASE [4]: 9.33 u/L | PHOSPHORUS [4]: 9.87 mg/dL | POTASSIUM [4]: 6.09 MEQ/L | SODIUM [4]: 144 MEQ/L | TOTAL BILIRUBIN [4]: 0.17 mg/dL | TOTAL PROTEIN [4]: 6.17 G/DL | URIC ACID [4]: 0.73 mg/dL
